For 34 compounds, Emax and EC50 results are on record in US20260200926A1, “TREM2 MODULATORS” (Muna Therapeutics ApS, priority 2022, published 2026).

Molecules are shown by their SMILES. Like-named read-outs stand apart in the source and are kept apart here.

The target of the experiment is T1, Human TREM2 (Homo sapiens, UniProt Q9NZC2).
T1 construct: expressed in transfected cells
Briefly: Human TREM2 activity: cellular phosphorylation of Syk (AlphaLISA SureFire Ultra p-SYK) in HEK293/DAP12+TREM2 stable cell line. In kind it is cell-based. To be noted: for Emax: HEK293, read-out: Emax; for EC50: phospho-Syk AlphaLISA signal, HEK293/DAP12+TREM2 cells, concentration giving 50% of maximal response, read-out: EC50. Summed up:
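HEK293 cells stably co-expressing human TREM2 and DAP12 were seeded at 10,000 cells/well and used 20–24 h later. Compounds were tested at 8 concentrations (top 100 μM, 1:6 steps, 0.5% DMSO) for 30 min at 37 °C. Syk phosphorylation at Tyr525/526 was read in lysates by AlphaLISA SureFire Ultra.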
In general terms: In Alpha technology, singlet oxygen from a donor bead excites a nearby acceptor bead.

[1] abbreviates: maximal response relative to reference agonist example 1B (remaining examples).

T1 sequence (Q9NZC2 19-230): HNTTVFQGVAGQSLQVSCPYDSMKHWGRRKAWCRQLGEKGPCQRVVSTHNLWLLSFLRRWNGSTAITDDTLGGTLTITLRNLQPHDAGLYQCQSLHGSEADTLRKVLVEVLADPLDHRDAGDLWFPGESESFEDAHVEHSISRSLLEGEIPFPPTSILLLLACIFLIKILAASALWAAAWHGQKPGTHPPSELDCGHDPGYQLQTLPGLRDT
T1 sequence (O43914 22-113 partner): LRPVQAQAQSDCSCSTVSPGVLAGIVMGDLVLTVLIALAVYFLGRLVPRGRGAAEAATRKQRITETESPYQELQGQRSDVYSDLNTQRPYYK

For the compound `Cc1nc2c(-c3ccc(Cl)cc3F)nc(N3CCOC(c4ccnn4C)C3)nc2c(=O)n1C` (centres unmarked) [Example 44, 8-(4-chloro-2-fluorophenyl)-2,3-dimethyl-6-(2-(1-methyl-1H-pyrazol-5-yl)morpholino)pyrimido[5,4-d]pyrimidin-4(3H)-one], the EC50 (in general, the concentration at which the effect is half-maximal) fell in the range of 100 to 1000 nM. For the same compound, under setting [1], the Emax (commonly the size of the effect at its maximum, as opposed to the concentration needed) lay within 75 to 110%.

As for `Cc1nc2c(-c3ccc(C(F)(F)F)cc3F)nc(N3C[C@@H](C)O[C@@H](c4cnn(C5CC5)c4)C3)nc2c(=O)n1C` (single isomer, unassigned) [Example 195B], the EC50 was less than 1 nM. Besides, the Emax under setting [1] was in the range of 75 to 110%.

With `Cc1nc2c(-c3cc(F)c(F)cc3F)nc(N3C[C@@H](c4cnn(C)c4)OC4(CC4)C3)cc2c(=O)n1C` (single isomer, unassigned) [Example 146A], the EC50 was 10 to 100 nM. The Emax under setting [1] was 75 to 110%.

Regarding `Cc1nc2c(-c3ccc(Cl)cc3F)nc(N3CCC(c4cnn(C)c4)C3)nc2c(=O)n1C` (centres unmarked) [Example 63, 8-(4-chloro-2-fluorophenyl)-2,3-dimethyl-6-[3-(1-methyl-1H-pyrazol-4-yl)pyrrolidin-1-yl]-3H,4H-pyrimido[5,4-d][1,3]diazin-4-one], the EC50 lay in the range of 10 to 100 nM. For the same compound, under setting [1], the Emax was less than 75%.

Consider `Cc1nc2c(-c3ccc(Cl)cc3F)nc(N3C[C@H](c4cnn(C)c4)OC4(CC4)C3)nc2c(=O)n1C` (single isomer, unassigned) [Example 108B], for which the EC50 was in the range of 100 to 1000 nM. Further, under setting [1], the Emax was less than 75%.

For `Cc1cc([C@H]2CN(c3cc4c(=O)n(C)c(C)nc4c(-c4ccc(C(F)F)nc4)n3)CC(F)(F)O2)ccn1` (single isomer, unassigned) [Example 181B], the EC50 is 1 to 10 nM. The Emax under setting [1] fell in the range of 75 to 110%.

`Cc1nc2c(-c3ccc(Cl)cc3F)nc(N3CCC[C@H](Oc4cnn(C)c4)C3)nc2c(=O)n1C` [Example 75, (S)-8-(4-chloro-2-fluorophenyl)-2,3-dimethyl-6-(3-((1-methyl-1H-pyrazol-4-yl)oxy)piperidin-1-yl)pyrimido[5,4-d]pyrimidin-4 (3H)-one]: the EC50 lay within 100 to 1000 nM. Further, the maximum response (Emax) under setting [1] is less than 75%.

In the case of `Cc1nc2c(-c3ccc(Cl)cc3F)nc(N3C[C@H](c4cnn(C)c4)OC4(CC4)C3)c(F)c2c(=O)n1C` (single isomer, unassigned) [Example 173B], the EC50 fell in the range of 10 to 100 nM. For the same compound, under setting [1], the Emax was less than 75%.

Turning to `Cc1cc([C@@H]2CN(c3nc(-c4ccc(C(F)(F)F)nc4)c4nc(C)n(C)c(=O)c4n3)CCO2)ccn1` (single isomer, unassigned) [Example 22A], the EC50 lay in the range of 100 to 1000 nM. Moreover, the Emax under setting [1] was in the range of 75 to 110%.

As to `Cc1nc2c(-c3cc(F)c(F)cc3F)nc([C@@H]3CCO[C@H](c4cnn(C5CC5)c4)C3)cc2c(=O)n1C` (single isomer, unassigned) [Example 139A], the EC50 lay in the range of 10 to 100 nM. In addition, the Emax under setting [1] was in the range of 75 to 110%.

With `Cc1nc2c(-c3ccc(C(F)(F)F)cc3F)nc(N3C[C@@H](c4cnn(C5CC5)c4)O[C@@H](C)C3)nc2c(=O)n1C` (single isomer, unassigned) [Example 195A], the EC50 is 1 to 10 nM. Besides, the Emax under setting [1] was less than 75%.

As for `Cc1nc2c(-c3ccc(F)c(F)c3F)nc(N3CCOC(c4cnn(C)c4)C3)nc2c(=O)n1C` (centres unmarked) [Example 6, 2,3-dimethyl-6-(2-(1-methyl-1H-pyrazol-4-yl)morpholino)-8-(2,3,4-trifluorophenyl)pyrimido[5,4-d]pyrimidin-4(3H)-one], the EC50 was more than 1000 nM. Moreover, the Emax under setting [1] was 75 to 110%.

For `Cc1nc2c(-c3ccc(Cl)cc3F)nc(N3CCCC(N4CC(F)(F)C4)C3)nc2c(=O)n1C` (centres unmarked) [Example 80, 8-(4-chloro-2-fluorophenyl)-6-(3-(3,3-difluoroazetidin-1-yl)piperidin-1-yl)-2,3-dimethylpyrimido[5,4-d]pyrimidin-4 (3H)-one], the EC50 was more than 1000 nM. Besides, under setting [1], the Emax is less than 75%.

On to `Cc1nc2c(-c3ccc(Cl)cc3F)nc(N3CCO[C@@H](c4cnn(C)c4)C3)nc2c(=O)n1C` (single isomer, unassigned) [Example 1B], for which the EC50 was 10 to 100 nM. The Emax (maximal response relative to reference agonist human TREM2 MAB1828 (examples 1, 1A and 1B)) was more than 110%.

Consider `COCCn1cc(C2CN(c3nc(-c4ccc(Cl)cc4F)c4nc(C)n(C)c(=O)c4n3)CCO2)cn1` (centres unmarked) [Example 69, 8-(4-chloro-2-fluorophenyl)-6-(2-(1-(2-methoxyethyl)-1H-pyrazol-4-yl)morpholino)-2,3-dimethylpyrimido[5,4-d]pyrimidin-4 (3H)-one], for which the EC50 is 10 to 100 nM. Further, under setting [1], the Emax was less than 75%.

Take `Cn1c(C(F)(F)F)nc2c(-c3ccc(F)cc3F)nc([C@H]3CCO[C@@H](c4cnn(C5CC5)c4)C3)nc2c1=O` (single isomer, unassigned) [Example 196B]: the EC50 lay in the range of 10 to 100 nM. Moreover, the Emax under setting [1] is less than 75%.

`Cc1cc([C@H]2C[C@@H](c3cc4c(=O)n(C)c(C)nc4c(-c4ccc(F)cc4F)n3)C[C@@H](C)O2)ccn1` [Example 185]: the EC50 is 1 to 10 nM. Further, the Emax under setting [1] was in the range of 75 to 110%.

With `Cc1nc2c(-c3ccc(C(F)(F)F)nc3)nc(N3C[C@@H](C)O[C@@H](c4cnn(C5CC5)c4)C3)cc2c(=O)n1C` (single isomer, unassigned) [Example 184B], the EC50 was 10 to 100 nM. Also, the Emax under setting [1] is less than 75%.

Consider `Cc1nc2c(-c3ccc(Cl)cc3F)nc(N3C[C@@H](c4cnn(C5CC5)c4)O[C@@H](C)C3)nc2c(=O)n1C` (single isomer, unassigned) [Example 178A], for which the EC50 lay within 1 to 10 nM. The Emax under setting [1] was in the range of 75 to 110%.

In the case of `Cc1cc([C@@H]2CN(c3cc4c(=O)n(C)c(C)nc4c(-c4ccc(C(F)(F)F)nc4)n3)CC(C)(C)O2)ccn1` (single isomer, unassigned) [Example 161A], the EC50 lay in the range of 100 to 1000 nM. Moreover, the Emax under setting [1] is less than 75%.

Consider `Cc1cc([C@H]2CN(c3nc(-c4ccc(F)cc4F)c4nc(C)n(C)c(=O)c4n3)CC(C)(C)O2)ccn1` (single isomer, unassigned) [Example 170B], for which the EC50 was 1 to 10 nM. Besides, the Emax under setting [1] lay in the range of 75 to 110%.

Turning to `Cc1nc2c(-c3cc(C(F)(F)F)nn3C)nc(N3CCOC(c4cnn(C)c4)C3)nc2c(=O)n1C` (centres unmarked) [Example 99, 2,3-dimethyl-6-(2-(1-methyl-1H-pyrazol-4-yl)morpholino)-8-(1-methyl-3-(trifluoromethyl)-1H-pyrazol-5-yl)pyrimido[5,4-d]pyrimidin-4 (3H)-one], the EC50 lay in the range of 100 to 1000 nM. Besides, under setting [1], the Emax was less than 75%.

Consider `Cc1nc2c(-c3ccc(Cl)cc3F)cc([C@@H]3CCO[C@H](c4cnn(C5CC5)c4)C3)cc2c(=O)n1C` (single isomer, unassigned) [Example 119A], for which the EC50 lay within 100 to 1000 nM. For the same compound, the Emax under setting [1] was less than 75%.

As to `Cc1nc2c(-c3ccc(C(F)(F)F)cc3F)nc(N3CCO[C@@H](c4cnn(C5CC5)c4)C3)cc2c(=O)n1C` (single isomer, unassigned) [Example 132B], the EC50 is 100 to 1000 nM. In addition, the Emax under setting [1] is less than 75%.

For `Cc1nc2c(-c3ccc(Cl)cc3F)nc(N3CC(c4cnn(C)c4)OC4(CC4)C3)c(F)c2c(=O)n1C` (centres unmarked) [Example 157, 8-(4-chloro-2-fluorophenyl)-5-fluoro-2,3-dimethyl-6-(5-(1-methyl-1H-pyrazol-4-yl)-4-oxa-7-azaspiro[2.5]octan-7-yl)pyrido[3,4-d]pyrimidin-4 (3H)-one], the EC50 was 100 to 1000 nM. Moreover, under setting [1], the maximal effect (Emax) was less than 75%.

In the case of `Cc1cc([C@@H]2CN(c3cc4c(=O)n(C)c(C(F)(F)F)nc4c(-c4ccc(F)cc4F)n3)C[C@H](C)O2)ccn1` (single isomer, unassigned) [Example 189A], the EC50 was in the range of 10 to 100 nM. Under setting [1], the Emax was 75 to 110%.

As for `Cc1nc2c(-c3ccc(Cl)cc3F)cc(N3CCOC(c4cnn(C)c4)C3)cc2c(=O)n1C` (centres unmarked) [Example 106, 8-(4-chloro-2-fluorophenyl)-2,3-dimethyl-6-(2-(1-methyl-1H-pyrazol-4-yl)morpholino)quinazolin-4 (3H)-one], the EC50 lay in the range of 100 to 1000 nM. Besides, the Emax under setting [1] is less than 75%.

For `Cc1nc2c(-c3ccc(C(F)(F)F)cc3F)nc(N3CCO[C@H](c4cnn(C5CC5)c4)C3)cc2c(=O)n1C` (single isomer, unassigned) [Example 132A], the EC50 was in the range of 1 to 10 nM. The Emax under setting [1] was 75 to 110%.

For `Cc1nc2c(-c3ccc(Cl)cc3F)nc(N3C[C@H](c4cnn(C)n4)OC(C)(C)C3)cc2c(=O)n1C` (single isomer, unassigned) [Example 147B], the EC50 lay in the range of 100 to 1000 nM. Further, under setting [1], the Emax was in the range of 75 to 110%.

Consider `Cc1cc([C@H]2CN(c3cc4c(=O)n(C)c(C)nc4c(-c4ccc(F)cc4F)n3)C[C@@H](C)O2)ccn1` (single isomer, unassigned) [Example 182B], for which the EC50 was in the range of 100 to 1000 nM. In addition, the Emax under setting [1] was less than 75%.

For the compound `Cc1nc2c(-c3ccc(Cl)cc3F)cc(N3C[C@@H](c4cnn(C)c4)OC(C)(C)C3)nc2c(=O)n1C` (single isomer, unassigned) [Example 142A], the EC50 is 100 to 1000 nM. Moreover, the Emax under setting [1] was less than 75%.

In the case of `Cc1nc2c(-c3ccc(F)cc3F)nc(N3C[C@H](c4cnn(C)c4)OC(C)(C)C3)nc2c(=O)n1C` (single isomer, unassigned) [Example 121B], the EC50 was more than 1000 nM. Also, the Emax under setting [1] is less than 75%.

As to `Cc1nc2c(-c3ccc(C(F)(F)F)cc3F)nc([C@H]3CCO[C@@H](c4cnn(C5CC5)c4)C3)cc2c(=O)n1C` (single isomer, unassigned) [Example 153B], the EC50 lay within 100 to 1000 nM. For the same compound, the Emax under setting [1] was less than 75%.

For `Cc1nc2c(-c3ccc(C(F)(F)F)cc3F)nc([C@@H]3CCO[C@H](c4cnn(C)c4)C3)nc2c(=O)n1C` (single isomer, unassigned) [Example 65], the EC50 lay within 10 to 100 nM. In addition, under setting [1], the Emax was 75 to 110%.
